According to the supplement of paper PMC11451515:

Test system: SEM cells
Assay: cell viability relative to DMSO control; higher = less cytotoxic
Details: 48 h
Outline: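 Library compounds in DMSO were pin-dosed in an 11-point threefold series (47 μM to 0.79 nM) onto leukemia cells in 1536-well plates (5 μl). Plates held 500 cells/well of NOMO1 or SEM or 1000 cells/well of P12-Ichikawa, each adapted for at least four passages in each medium. Luminescence was read with CellTiter-Glo One after 48 h at 37°C. Viability means the per-plate percentage relative to DMSO wells, using cell-free wells as background.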

[1] = HPLM + 10% dialyzed FBS, 0.000781 µM
[2] = HPLM + 10% dialyzed FBS, 0.00234 µM
[3] = HPLM + 10% dialyzed FBS, 0.00702 µM
[4] = HPLM + 10% dialyzed FBS, 0.0211 µM
[5] = HPLM + 10% dialyzed FBS, 0.0632 µM
[6] = HPLM + 10% dialyzed FBS, 0.19 µM
[7] = HPLM + 10% dialyzed FBS, 0.569 µM
[8] = HPLM + 10% dialyzed FBS, 1.71 µM
[9] = HPLM + 10% dialyzed FBS, 5.12 µM
[10] = HPLM + 10% dialyzed FBS, 15.4 µM
[11] = HPLM + 10% dialyzed FBS, 46.1 µM
[12] = RPMI 5 mM glucose + 10% FBS, 0.000781 µM
[13] = RPMI 5 mM glucose + 10% FBS, 0.00234 µM
[14] = RPMI 5 mM glucose + 10% FBS, 0.00702 µM
[15] = RPMI 5 mM glucose + 10% FBS, 0.0211 µM
[16] = RPMI 5 mM glucose + 10% FBS, 0.0632 µM
[17] = RPMI 5 mM glucose + 10% FBS, 0.19 µM
[18] = RPMI 5 mM glucose + 10% FBS, 0.569 µM
[19] = RPMI 5 mM glucose + 10% FBS, 1.71 µM
[20] = RPMI 5 mM glucose + 10% FBS, 5.12 µM
[21] = RPMI 5 mM glucose + 10% FBS, 15.4 µM
[22] = RPMI 5 mM glucose + 10% FBS, 46.1 µM
[23] = RPMI 5 mM glucose + 10% dialyzed FBS, 0.000781 µM
[24] = RPMI 5 mM glucose + 10% dialyzed FBS, 0.00234 µM
[25] = RPMI 5 mM glucose + 10% dialyzed FBS, 0.00702 µM
[26] = RPMI 5 mM glucose + 10% dialyzed FBS, 0.0211 µM
[27] = RPMI 5 mM glucose + 10% dialyzed FBS, 0.0632 µM
[28] = RPMI 5 mM glucose + 10% dialyzed FBS, 0.19 µM
[29] = RPMI 5 mM glucose + 10% dialyzed FBS, 0.569 µM
[30] = RPMI 5 mM glucose + 10% dialyzed FBS, 1.71 µM
[31] = RPMI 5 mM glucose + 10% dialyzed FBS, 5.12 µM
[32] = RPMI 5 mM glucose + 10% dialyzed FBS, 15.4 µM
[33] = RPMI 5 mM glucose + 10% dialyzed FBS, 46.1 µM

| Compound | cell viability [1] [%] | cell viability [2] [%] | cell viability [3] [%] | cell viability [4] [%] | cell viability [5] [%] | cell viability [6] [%] | cell viability [7] [%] | cell viability [8] [%] | cell viability [9] [%] | cell viability [10] [%] | cell viability [11] [%] | cell viability [12] [%] | cell viability [13] [%] | cell viability [14] [%] | cell viability [15] [%] | cell viability [16] [%] | cell viability [17] [%] | cell viability [18] [%] | cell viability [19] [%] | cell viability [20] [%] | cell viability [21] [%] | cell viability [22] [%] | cell viability [23] [%] | cell viability [24] [%] | cell viability [25] [%] | cell viability [26] [%] | cell viability [27] [%] | cell viability [28] [%] | cell viability [29] [%] | cell viability [30] [%] | cell viability [31] [%] | cell viability [32] [%] | cell viability [33] [%] |
| --- | --- | --- | --- | --- | --- | --- | --- | --- | --- | --- | --- | --- | --- | --- | --- | --- | --- | --- | --- | --- | --- | --- | --- | --- | --- | --- | --- | --- | --- | --- | --- | --- | --- |
| CC\12CCC(=O)\C=C1CCC3C2CCC4(C)C3CCC4(O)C#C (centres undefined) | 105 | 104 | 105 | 99.9 | 113 | 102 | 103 | 117 | 91.1 | 94.9 | 90.5 | 107 | 92.2 | 99.2 | 102 | 94.5 | 106 | 95.7 | 95.8 | 70.7 | 100 | 99 | 112 | 105 | 98.3 | 113 | 117 | 102 | 113 | 98.5 | 97.3 | 106 | 99.9 |
| OC1=CC2=C(C=C1)C(=O)\C(=C(O2)\C3=CC(=C(O)C=C3)O)O | 103 | 116 | 104 | 93.6 | 102 | 99.5 | 102 | 104 | 104 | 93.2 | 32.9 | 111 | 113 | 102 | 111 | 117 | 102 | 102 | 97 | 98.2 | 100 | 22.8 | 84.9 | 98.1 | 89.9 | 91.6 | 99.2 | 96.5 | 103 | 88.5 | 85.9 | 75.1 | 20.1 |
| C[C@H]1C[C@H]2[C@@H]3CC[C@](O)(C(=O)CO)[C@@]3(C)C[C@H](O)[C@@H]2[C@@]\4(C)/C=C\C(=O)\C=C14 | 78.4 | 85 | 76.7 | 87.1 | 86.2 | 75.6 | 57.1 | 41.3 | 47.4 | 46.9 | 42.6 | 76.9 | 104 | 90 | 101 | 90.5 | 102 | 71.3 | 39.2 | 51.5 | 51.2 | 40.2 | 90.6 | 92.4 | 101 | 95.7 | 93.2 | 96.3 | 72.1 | 40.9 | 45.7 | 45 | 33.3 |
| C[C@]12Cc3cn[nH]c3C[C@@H]1CC[C@@H]1[C@@H]2CC[C@@]2(C)[C@H]1CC[C@]2(C)O | 108 | 105 | 105 | 79.7 | 100 | 88.6 | 83.6 | 75.8 | 90.4 | 97.4 | 88.1 | 102 | 108 | 104 | 119 | 116 | 104 | 118 | 104 | 99.4 | 114 | 101 | 103 | 94.9 | 106 | 123 | 110 | 103 | 108 | 107 | 111 | 105 | 95.8 |
| CN1C(=O)C(=C\C2=C1N=C(NC3=CC=CC(=C3)C(O)=O)N=C2)/C4=C(Cl)C=CC=C4Cl | 106 | 114 | 108 | 112 | 110 | 116 | 107 | 110 | 104 | 67.4 | 31.9 | 103 | 124 | 132 | 114 | 125 | 123 | 90.9 | 101 | 84.2 | 65.6 | 25 | 106 | 118 | 136 | 130 | 121 | 115 | 100 | 116 | 97 | 73.1 | 37.8 |
| N\C1=N\C2=C(N=C[N]2COCCO)C(=O)N1 | 93.7 | 101 | 97.2 | 103 | 100 | 99.7 | 111 | 104 | 89.5 | 77.3 | 60.5 | 87 | 107 | 106 | 112 | 101 | 104 | 115 | 117 | 106 | 93.4 | 56.5 | 83 | 93.9 | 95.9 | 94.3 | 95.1 | 115 | 90.1 | 101 | 88.2 | 73.3 | 44.8 |
| COc1cc(Nc2c(C#N)cnc3cc(OCCCN4CCN(C)CC4)c(OC)cc23)c(Cl)cc1Cl | 87.1 | 96.8 | 114 | 113 | 111 | 95 | 109 | 54.6 | 13 | 5.77 | 6.12 | 72.5 | 68.2 | 75.7 | 74.8 | 73.1 | 84.7 | 68.1 | 44 | 7.02 | 3.9 | 4.3 | 95.9 | 89.4 | 103 | 105 | 96.1 | 98 | 100 | 62.1 | 17.5 | 5.92 | 5.77 |
| OC1=CC=C(C=C1)\C2=C\OC3=C(C(=CC(=C3)O)O)C2=O | 95.4 | 109 | 96.8 | 105 | 108 | 119 | 112 | 79.1 | 105 | 102 | 74.8 | 93.1 | 82.2 | 89.8 | 86 | 91 | 95.7 | 94.2 | 56.6 | 91.9 | 72.7 | 36.2 | 94.5 | 103 | 104 | 102 | 119 | 115 | 115 | 65.1 | 92.6 | 101 | 59 |
| COc1cccc2c1C(=O)c1c(O)c3c(c(O)c1C2=O)C[C@@](O)(C(=O)CO)C[C@@H]3O[C@H]1C[C@H](N)[C@H](O[C@H]2CCCCO2)[C@H](C)O1 | 101 | 106 | 111 | 103 | 102 | 129 | 102 | 81.8 | 13 | 109 | 72.2 | 79.7 | 84.3 | 89.5 | 91 | 65.2 | 96.1 | 66.6 | 44.8 | 7.83 | 95.8 | 59 | 92.9 | 110 | 119 | 123 | 117 | 115 | 95.8 | 77.3 | 18.3 | 126 | 105 |
| COc1ccc(C(=O)c2c(C)n(CCN3CCOCC3)c3ccccc23)cc1 | 83.5 | 93.6 | 93.3 | 102 | 99.8 | 105 | 84.3 | 108 | 104 | 108 | 103 | 74.4 | 89 | 88.5 | 88.3 | 91.5 | 93.2 | 77.9 | 85.2 | 87.5 | 72.8 | 66.5 | 95.6 | 88.3 | 97.9 | 93.5 | 97.2 | 97.4 | 96.1 | 83.8 | 102 | 92.1 | 87.8 |
| Cc1c(-c2cccc3c(CCCOc4cccc5ccccc45)c(C(=O)O)n(Cc4cccnc4)c23)c(COc2ccc(N3CCN([S+](=O)([O-])N(C)C)CC3)cc2)nn1C | 92.3 | 99.5 | 85.1 | 85.2 | 104 | 82.8 | 83.5 | 97.6 | 81 | 79.2 | 48.3 | 100 | 108 | 86.2 | 129 | 111 | 128 | 112 | 114 | 102 | 95.5 | 54.8 | 107 | 99.1 | 80.5 | 83.2 | 100 | 91.5 | 109 | 96.5 | 77.1 | 70 | 43 |
| Cc1ccccc1C(OCCN(C)C)c1ccccc1 (centres undefined) | 102 | 95.2 | 106 | 101 | 105 | 119 | 120 | 115 | 117 | 117 | 99.1 | 105 | 108 | 128 | 115 | 98.9 | 109 | 124 | 121 | 107 | 103 | 99.4 | 99.3 | 109 | 116 | 120 | 124 | 125 | 122 | 130 | 121 | 115 | 114 |
| C[C@@H](NCCCc1cccc(C(F)(F)F)c1)c1cccc2ccccc12 | 121 | 119 | 116 | 117 | 118 | 111 | 120 | 122 | 113 | 106 | 105 | 112 | 124 | 119 | 131 | 107 | 113 | 116 | 114 | 96.5 | 94.3 | 111 | – | – | – | – | – | – | – | – | – | – | – |
| NC[C@@H]1O[C@H](O[C@H]2[C@@H](O)[C@H](O[C@@H]3[C@@H](O)[C@H](N)C[C@H](N)[C@H]3O[C@H]3O[C@H](CN)[C@@H](O)[C@H](O)[C@H]3N)O[C@@H]2CO)[C@H](N)[C@@H](O)[C@@H]1O.O=S(=O)(O)O.O=S(=O)(O)O.O=S(=O)(O)O | 104 | 99.7 | 103 | 106 | 98.4 | 99.4 | 104 | 91 | 98.7 | 105 | 106 | 92.9 | 105 | 110 | 98.8 | 69.1 | 101 | 101 | 102 | 104 | 94 | 105 | 109 | 115 | 116 | 113 | 90.7 | 104 | 115 | 105 | 108 | 105 | 100 |
| c1ccc2c(Cc3c[nH]c4ccccc34)c[nH]c2c1 | 93.8 | 95.3 | 97.5 | 89.4 | 88.7 | 82.2 | 73.8 | 80.3 | 78.9 | 62.1 | 18.6 | 106 | 92.9 | 96 | 104 | 90.3 | 81.1 | 73.8 | 78.6 | 76.4 | 71.5 | 14.6 | 103 | 99 | 109 | 101 | 73.2 | 82.7 | 72.3 | 74.7 | 68.3 | 56.1 | 15.8 |
